In patent publication US4001209A, “Antibiotic G-52 and method for the production thereof” (Schering Corporation, priority 1975, dated 1977):
≈ marks a conversion by molar mass, not a printed value.

What was measured:
[1] = test system: gram-positive and gram-negative microorganisms; assay: Antibacterial activity (general statement); type: cell-based
[2] = test system: Staphylococcus aureus A.T.C.C. 6538P; assay: standard disc plate microbiological assay
Solubility = type: physicochemical
Acute Toxicity = conditions: mouse, in vivo, sc
Description: b. The acute toxicity of Antibiotic G-52 in the form of the sulfate salt is determined in the standard manner by administration of the antibiotic to mice (CF-1) intravenously, subcutaneously and intraperitoneally. The results are analyzed by standard probit procedures to determine the LD50 values with 95% confidence limits.

Stability = type: physicochemical
[3] = test system: Staphylococcus aureus Gray; assay: Protective Activity in mice; type: in vivo, Mice (Carworth Farms CF-1); conditions: sc, S.C., single dose of antibiotic (sulfate) 1 hour after intraperitoneal infection (10^7 organisms), survivors at 48 hours, read-out: PD50
Description: (§1) a. Mice (Carworth Farms CF-1 weighing about 18 - 20 grams) are treated with a single dose of antibiotic (sulfate) one (1) hour after an intraperitoneal infection with a lethal (10^7 organisms) quantity of the infectious organism. The number of survivors are determined 48 hours after infection and the data analyzed by standard probit procedures to determine the PD50 values with 95% confidence limits.

Pseudomonas aeruginosa = assay: Protective Activity in mice; type: in vivo, Mice (Carworth Farms CF-1); conditions: sc, S.C., single dose of antibiotic (sulfate) 1 hour after intraperitoneal infection (10^7 organisms), survivors at 48 hours, read-out: PD50
Description: as §1

Escherichia coli = assay: Protective Activity in mice; type: in vivo, Mice (Carworth Farms CF-1); conditions: sc, S.C., single dose of antibiotic (sulfate) 1 hour after intraperitoneal infection (10^7 organisms), survivors at 48 hours, read-out: PD50
Description: as §1

[4] = test system: Klebsiella pneumoniae Ad 17 - kR; assay: Minimum Inhibitory Concentration; type: cell-based; conditions: AD17KR, pH 7.2
Excerpt: (§2) Test Medium: Tryptose phosphate broth at pH 7.2.

Escherichia coli 11775 = assay: Minimum Inhibitory Concentration; type: cell-based; conditions: Tryptose phosphate broth at pH 7.2
Excerpt: as §2

Proteus mirabilis 8019 = assay: Minimum Inhibitory Concentration; type: cell-based; conditions: Tryptose phosphate broth at pH 7.2
Excerpt: as §2

Staphylococcus aureus 45 = assay: Minimum Inhibitory Concentration; type: cell-based; conditions: Tryptose phosphate broth at pH 7.2
Excerpt: as §2

[5] = test system: Pseudomonas aeruginosa 130 - GR; assay: Minimum Inhibitory Concentration; type: cell-based; conditions: Tryptose phosphate broth at pH 7.2
Excerpt: as §2

[6] = test system: Staphylococcus aureus 209P; assay: Minimum Inhibitory Concentration; type: cell-based; conditions: Tryptose phosphate broth at pH 7.2
Excerpt: as §2

[7] = test system: Salmonella paratyphi 13311; assay: Minimum Inhibitory Concentration; type: cell-based; conditions: Salmonella enterica, pH 7.2
Excerpt: as §2

Streptococcus pyogenes C = assay: Minimum Inhibitory Concentration; type: cell-based; conditions: Tryptose phosphate broth at pH 7.2
Excerpt: as §2

Escherichia coli 578 = assay: Minimum Inhibitory Concentration; type: cell-based; conditions: Tryptose phosphate broth at pH 7.2
Excerpt: as §2

[8] = test system: Pseudomonas aeruginosa 236 - GR; assay: Minimum Inhibitory Concentration; type: cell-based; conditions: Tryptose phosphate broth at pH 7.2
Excerpt: as §2

Structure (SMILES): CNCC1=CC[C@@H](N)[C@@H](O[C@H]2[C@H](O)[C@@H](O[C@H]3OC[C@](C)(O)[C@H](NC)[C@H]3O)[C@H](N)C[C@@H]2N)O1 [Antibiotic G-52]
- effect on growth of gram-positive and gram-negative microorganisms [1]: adversely affect the growth
- zone of inhibition at 1 µg/disc ([2]; Staphylococcus aureus): 17.7 ± 1 mm
- potency (assay) ([2]; against standard antibiotic base (defined potency 1000 mcg/mg)): about 1000 mcg/mg
- solubility in organic solvents (Solubility; most polar organic solvents such as lower alcohols, dimethylformamide, dimethylsulfoxide, pyridine): some degree of solubility
- solubility in water (Solubility; water): very soluble
- LD50 (Acute Toxicity): 400 mg/kg
- stable to boiling (Stability; MacIlvaines buffer from pH 2-8): ≥ 30 min
- stable to boiling (Stability; sodium hydroxide-boric acid buffer from pH 8-10): ≥ 30 min
- ED50 [3]: 2.5 mg/kg
- ED50 (Pseudomonas aeruginosa): 1.5 mg/kg
- ED50 (Escherichia coli): 2.5 mg/kg
- MIC [4]: 0.8 µg/mL (≈ 1.73 µM)
- MIC (Escherichia coli 11775): 3 µg/mL (≈ 6.5 µM)
- MIC (Proteus mirabilis 8019): 7.5 µg/mL (≈ 16.2 µM)
- MIC (Staphylococcus aureus 45): 0.8 µg/mL (≈ 1.73 µM)
- MIC [5]: 25 µg/mL (≈ 54.2 µM)
- MIC [6]: 0.3 µg/mL (≈ 0.65 µM)
- MIC [7]: 17.5 µg/mL (≈ 37.9 µM)
- MIC (Streptococcus pyogenes C): 25 µg/mL (≈ 54.2 µM)
- MIC (Escherichia coli 578): 7.5 µg/mL (≈ 16.2 µM)
- MIC [8]: 25 µg/mL (≈ 54.2 µM)
